In patent US8658638B2, “Mineralocorticoid receptor antagonist and methods of use” (priority 2009, dated 2014):

Legend:
[1] = molecular target: T1, human MR (mineralocorticoid receptor) (Homo sapiens, UniProt P08235); assay: Steroid nuclear hormone receptor binding assay, MR; conditions: [3H]-aldosterone, HEK293 lysate overexpressing human MR
T1 construct: expressed in transfected cells; host or cells: HEK293 (293-MR lysate)
T1 sequence (P08235 1-984): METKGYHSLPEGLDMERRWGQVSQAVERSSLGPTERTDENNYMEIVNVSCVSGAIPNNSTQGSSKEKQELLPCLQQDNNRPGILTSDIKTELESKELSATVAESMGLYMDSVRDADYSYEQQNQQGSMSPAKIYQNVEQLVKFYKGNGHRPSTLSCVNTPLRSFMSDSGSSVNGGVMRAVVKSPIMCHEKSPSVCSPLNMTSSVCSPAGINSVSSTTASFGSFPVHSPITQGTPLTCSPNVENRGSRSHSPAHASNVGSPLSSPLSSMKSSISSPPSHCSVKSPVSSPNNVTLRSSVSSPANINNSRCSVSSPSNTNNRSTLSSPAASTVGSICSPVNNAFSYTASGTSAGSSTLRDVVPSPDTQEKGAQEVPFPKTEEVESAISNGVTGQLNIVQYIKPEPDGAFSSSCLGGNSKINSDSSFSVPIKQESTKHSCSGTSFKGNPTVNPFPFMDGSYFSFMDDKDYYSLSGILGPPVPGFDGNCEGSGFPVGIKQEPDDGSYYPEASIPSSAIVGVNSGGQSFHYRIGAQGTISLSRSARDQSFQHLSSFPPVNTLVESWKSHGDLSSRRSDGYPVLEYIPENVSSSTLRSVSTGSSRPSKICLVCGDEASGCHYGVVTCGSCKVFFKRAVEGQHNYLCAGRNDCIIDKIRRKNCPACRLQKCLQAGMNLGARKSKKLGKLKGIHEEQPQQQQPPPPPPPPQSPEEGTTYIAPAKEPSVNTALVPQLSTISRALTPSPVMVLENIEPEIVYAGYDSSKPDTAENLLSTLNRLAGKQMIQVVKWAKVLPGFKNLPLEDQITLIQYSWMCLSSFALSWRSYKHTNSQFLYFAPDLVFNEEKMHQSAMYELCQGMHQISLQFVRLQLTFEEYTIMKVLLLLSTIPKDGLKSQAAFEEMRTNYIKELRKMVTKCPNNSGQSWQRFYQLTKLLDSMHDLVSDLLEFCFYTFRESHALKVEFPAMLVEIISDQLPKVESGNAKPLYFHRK
Procedure: Cell lysates from human embryonic kidney HEK293 cells overexpressing human MR (mineralocorticoid receptor), GR (glucocorticoid receptor), AR (androgen receptor), or PR (progesterone receptor) are used for receptor-ligand competition binding assays to determine Ki values.
Briefly, steroid receptor competition binding assays are run in a buffer containing 20 mM HEPES buffer (pH=7.6), 0.2 mM EDTA, 75 mM NaCl, 1.5 mM MgCl2, 20% glycerol, 20 mM sodium molybdate, 0.2 mM DTT (dithiothreitol), 20 μg/mL aprotinin and 20 μg/mL leupeptin (assay buffer). Typically, steroid receptor binding assays include radio-labeled ligands, such as 0.25 nM [^3H]-aldosterone for MR binding, 0.7 nM [^3H]-dexamethasone for GR binding, 0.36 nM [^3H]-methyltrienolone for AR binding, and 0.29 nM [^3H]-methyltrienolone for PR binding, and either 20 μg 293-MR lysate, 20 μg 293-GR lysate, 22 μg 293-AR lysate, or 40 μg 293-PR lysate per well. Assays are typically run in 96-well format. Competing test compounds are added at various concentrations ranging from about 0.01 nM to 10 μM. Non-specific binding is determined in the presence of 500 nM aldosterone for MR binding, 500 nM dexamethasone for GR binding, or 500 nM methyltrienolone for AR and PR binding. […] After an incubation of 2 hours, plates are read in a Wallac Microbeta counter. […]

[2] = test system: adrenalectomized Sprague Dawley rats; assay: In vivo assay of electrolyte modulation; conditions: 30 mg/kg p.o., aldosterone 3 μg/kg s.c., urine collected 5 hours after dose, rat
Procedure: Male Sprague Dawley rats (240-280 g) are adrenalectomized then maintained on 5001 rodent chow and 1% NaCl drinking solution for 6 days after surgery. Animals are then fasted overnight and 1% saline drinking water is replaced with house water ad lib. The morning of the study, fasted animals are randomized to treatment on the basis of fasted body weight. Control animals (e.g. those that receive no aldosterone or test compound) are given 10 mL/kg of test compound vehicle comprising 0.5% CMC/0.25% polysorbate 80/2.7% NaCl by oral gavage, and 1 mL/kg of aldosterone vehicle (0.01% DMSO/water) by subcutaneous injection. Vehicle animals are given the same test compound vehicle by oral gavage and aldosterone 3 μg/kg, s.c. Test substances are suspended in the carboxy methylcellulose/NaCl vehicle. The test compound treatment groups receive test substance suspended in the carboxy methylcellulose/NaCl vehicle and aldosterone 3 μg/kg s.c. Immediately after dosing, animals are placed in metabolic racks with ad lib access to house water. Urine samples are collected 5 hours after dose administration and electrolyte excretion is assayed. Data are presented as log Na/K excretion ratio or % of Na/K ratio with respect to adrenalectomized vehicle treated animals. […]

`O=c1[nH]c2cc(/C=C3\c4ccccc4COc4cc(F)ccc43)ccc2n1[C@@H]1C[C@@H]2COCCN2C1` [Compound (I), 5-((E)-(3-fluorodibenzo[b,e]oxepin-11(6H)-ylidene)methyl)-1-((7R,8aR)-hexahydro-1H-pyrrolo[2,1-c][1,4]oxazin-7-yl)-1H-benzo[d]imidazol-2(3H)-one] was tested, and the Ki [1] was about 0.4 nM and the “increase of urinary Na/K excretion ratio compared to vehicle treated animals” value [2] was “about 30%”.
